Results reported in BigSolDB 2.1.

## CSc1nc2cc(Oc3cccc(Cl)c3Cl)c(Cl)cc2[nH]1
In 1,2-dichloroethane, 278.15 K
  solubility (mole fraction): 0.00153
In 1,2-dichloroethane, 283.15 K
  solubility (mole fraction): 0.00187
In 1,2-dichloroethane, 288.15 K
  solubility (mole fraction): 0.00234
In 1,2-dichloroethane, 293.15 K
  solubility (mole fraction): 0.00289
In 1,2-dichloroethane, 298.15 K
  solubility (mole fraction): 0.00365
In 1,2-dichloroethane, 303.15 K
  solubility (mole fraction): 0.00429
In 1,2-dichloroethane, 308.15 K
  solubility (mole fraction): 0.00522
In 1,2-dichloroethane, 313.15 K
  solubility (mole fraction): 0.0063
In 1,2-dichloroethane, 318.15 K
  solubility (mole fraction): 0.00759
In acetonitrile, 278.15 K
  solubility (mole fraction): 0.000629
In acetonitrile, 283.15 K
  solubility (mole fraction): 0.000811
In acetonitrile, 288.15 K
  solubility (mole fraction): 0.00106
In acetonitrile, 293.15 K
  solubility (mole fraction): 0.00136
In acetonitrile, 298.15 K
  solubility (mole fraction): 0.00164
In acetonitrile, 303.15 K
  solubility (mole fraction): 0.00213
In acetonitrile, 308.15 K
  solubility (mole fraction): 0.00264
In acetonitrile, 313.15 K
  solubility (mole fraction): 0.0032
In acetonitrile, 318.15 K
  solubility (mole fraction): 0.00396
In ethanol, 278.15 K
  solubility (mole fraction): 0.00727
In ethanol, 283.15 K
  solubility (mole fraction): 0.00878
In ethanol, 288.15 K
  solubility (mole fraction): 0.0105
In ethanol, 293.15 K
  solubility (mole fraction): 0.0126
In ethanol, 298.15 K
  solubility (mole fraction): 0.0151
In ethanol, 303.15 K
  solubility (mole fraction): 0.0181
In ethanol, 308.15 K
  solubility (mole fraction): 0.0209
In ethanol, 313.15 K
  solubility (mole fraction): 0.0244
In ethanol, 318.15 K
  solubility (mole fraction): 0.0288
In ethyl acetate, 278.15 K
  solubility (mole fraction): 0.0106
In ethyl acetate, 283.15 K
  solubility (mole fraction): 0.0125
In ethyl acetate, 288.15 K
  solubility (mole fraction): 0.0147
In ethyl acetate, 293.15 K
  solubility (mole fraction): 0.0173
In ethyl acetate, 298.15 K
  solubility (mole fraction): 0.0198
In ethyl acetate, 303.15 K
  solubility (mole fraction): 0.0232
In ethyl acetate, 308.15 K
  solubility (mole fraction): 0.0262
In ethyl acetate, 313.15 K
  solubility (mole fraction): 0.0306
In ethyl acetate, 318.15 K
  solubility (mole fraction): 0.0354
In ethyl formate, 278.15 K
  solubility (mole fraction): 0.00501
In ethyl formate, 283.15 K
  solubility (mole fraction): 0.00632
In ethyl formate, 288.15 K
  solubility (mole fraction): 0.00795
In ethyl formate, 293.15 K
  solubility (mole fraction): 0.00982
In ethyl formate, 298.15 K
  solubility (mole fraction): 0.0121
In ethyl formate, 303.15 K
  solubility (mole fraction): 0.0149
In ethyl formate, 308.15 K
  solubility (mole fraction): 0.0177
In ethyl formate, 313.15 K
  solubility (mole fraction): 0.0215
In ethyl formate, 318.15 K
  solubility (mole fraction): 0.0258
In ethylene glycol, 278.15 K
  solubility (mole fraction): 0.000323
In ethylene glycol, 283.15 K
  solubility (mole fraction): 0.000439
In ethylene glycol, 288.15 K
  solubility (mole fraction): 0.00057
In ethylene glycol, 293.15 K
  solubility (mole fraction): 0.000714
In ethylene glycol, 298.15 K
  solubility (mole fraction): 0.000934
In ethylene glycol, 303.15 K
  solubility (mole fraction): 0.0012
In ethylene glycol, 308.15 K
  solubility (mole fraction): 0.00152
In ethylene glycol, 313.15 K
  solubility (mole fraction): 0.00188
In ethylene glycol, 318.15 K
  solubility (mole fraction): 0.00231
In isobutanol, 278.15 K
  solubility (mole fraction): 0.00455
In isobutanol, 283.15 K
  solubility (mole fraction): 0.00558
In isobutanol, 288.15 K
  solubility (mole fraction): 0.00698
In isobutanol, 293.15 K
  solubility (mole fraction): 0.00859
In isobutanol, 298.15 K
  solubility (mole fraction): 0.0109
In isobutanol, 303.15 K
  solubility (mole fraction): 0.0132
In isobutanol, 308.15 K
  solubility (mole fraction): 0.0161
In isobutanol, 313.15 K
  solubility (mole fraction): 0.0194
In isobutanol, 318.15 K
  solubility (mole fraction): 0.023
In isopropanol, 278.15 K
  solubility (mole fraction): 0.00215
In isopropanol, 283.15 K
  solubility (mole fraction): 0.00272
In isopropanol, 288.15 K
  solubility (mole fraction): 0.00337
In isopropanol, 293.15 K
  solubility (mole fraction): 0.00411
In isopropanol, 298.15 K
  solubility (mole fraction): 0.00511
In isopropanol, 303.15 K
  solubility (mole fraction): 0.00619
In isopropanol, 308.15 K
  solubility (mole fraction): 0.00757
In isopropanol, 313.15 K
  solubility (mole fraction): 0.00914
In isopropanol, 318.15 K
  solubility (mole fraction): 0.0112
In methanol, 278.15 K
  solubility (mole fraction): 0.00373
In methanol, 283.15 K
  solubility (mole fraction): 0.00458
In methanol, 288.15 K
  solubility (mole fraction): 0.00565
In methanol, 293.15 K
  solubility (mole fraction): 0.00691
In methanol, 298.15 K
  solubility (mole fraction): 0.00841
In methanol, 303.15 K
  solubility (mole fraction): 0.0101
In methanol, 308.15 K
  solubility (mole fraction): 0.0121
In methanol, 313.15 K
  solubility (mole fraction): 0.0144
In methanol, 318.15 K
  solubility (mole fraction): 0.017
In n-butanol, 278.15 K
  solubility (mole fraction): 0.0221
In n-butanol, 283.15 K
  solubility (mole fraction): 0.0246
In n-butanol, 288.15 K
  solubility (mole fraction): 0.0273
In n-butanol, 293.15 K
  solubility (mole fraction): 0.0302
In n-butanol, 298.15 K
  solubility (mole fraction): 0.0333
In n-butanol, 303.15 K
  solubility (mole fraction): 0.0366
In n-butanol, 308.15 K
  solubility (mole fraction): 0.0399
In n-butanol, 313.15 K
  solubility (mole fraction): 0.0435
In n-butanol, 318.15 K
  solubility (mole fraction): 0.0473
In n-butyl acetate, 278.15 K
  solubility (mole fraction): 0.0159
In n-butyl acetate, 283.15 K
  solubility (mole fraction): 0.0181
In n-butyl acetate, 288.15 K
  solubility (mole fraction): 0.0207
In n-butyl acetate, 293.15 K
  solubility (mole fraction): 0.0232
In n-butyl acetate, 298.15 K
  solubility (mole fraction): 0.0263
In n-butyl acetate, 303.15 K
  solubility (mole fraction): 0.0298
In n-butyl acetate, 308.15 K
  solubility (mole fraction): 0.0334
In n-butyl acetate, 313.15 K
  solubility (mole fraction): 0.0372
In n-butyl acetate, 318.15 K
  solubility (mole fraction): 0.0423
In n-pentyl acetate, 278.15 K
  solubility (mole fraction): 0.0185
In n-pentyl acetate, 283.15 K
  solubility (mole fraction): 0.0214
In n-pentyl acetate, 288.15 K
  solubility (mole fraction): 0.0241
In n-pentyl acetate, 293.15 K
  solubility (mole fraction): 0.0277
In n-pentyl acetate, 298.15 K
  solubility (mole fraction): 0.0319
In n-pentyl acetate, 303.15 K
  solubility (mole fraction): 0.0361
In n-pentyl acetate, 308.15 K
  solubility (mole fraction): 0.0407
In n-pentyl acetate, 313.15 K
  solubility (mole fraction): 0.0453
In n-pentyl acetate, 318.15 K
  solubility (mole fraction): 0.0511
In n-propanol, 278.15 K
  solubility (mole fraction): 0.00915
In n-propanol, 283.15 K
  solubility (mole fraction): 0.0108
In n-propanol, 288.15 K
  solubility (mole fraction): 0.0125
In n-propanol, 293.15 K
  solubility (mole fraction): 0.0146
In n-propanol, 298.15 K
  solubility (mole fraction): 0.017
In n-propanol, 303.15 K
  solubility (mole fraction): 0.0198
In n-propanol, 308.15 K
  solubility (mole fraction): 0.0229
In n-propanol, 313.15 K
  solubility (mole fraction): 0.0262
In n-propanol, 318.15 K
  solubility (mole fraction): 0.0301
In n-propyl acetate, 278.15 K
  solubility (mole fraction): 0.0124
In n-propyl acetate, 283.15 K
  solubility (mole fraction): 0.0146
In n-propyl acetate, 288.15 K
  solubility (mole fraction): 0.017
In n-propyl acetate, 293.15 K
  solubility (mole fraction): 0.0196
In n-propyl acetate, 298.15 K
  solubility (mole fraction): 0.0228
In n-propyl acetate, 303.15 K
  solubility (mole fraction): 0.0258
In n-propyl acetate, 308.15 K
  solubility (mole fraction): 0.0299
In n-propyl acetate, 313.15 K
  solubility (mole fraction): 0.0338
In n-propyl acetate, 318.15 K
  solubility (mole fraction): 0.039
